Laboratory results taken from EP3839043A1, “SCREENING METHODS FOR COMPOUNDS MODULATING POLYAMINE TRANSPORT” (Katholieke Universiteit Leuven, priority 2019, dated 2021).

Tested on: isolated mouse cortical neurons
Experiment: TUNEL staining of SPM-treated primary neurons
Assay type: cell-based
Details: CA-074 10 µM; SPM 10 µM, 24 h; Atp13a2 knockdown neurons
Text: Neuron isolation - Primary cortical neurons were derived from E16 FVB/N mice embryos. Pregnant mice were sacrificed on gestation day 16 by cervical dislocation. E16 mice pup brains were collected and placed in a dish containing calcium- and magnesium-free Hanks' Balanced Salt Solution (HBSS, Life Technologies, 14180-046) on ice. Both cerebral hemispheres were separated from the cerebellum. Meninges were removed from the cerebral hemispheres and the brain cortices dissected. Brain cortices were collected, washed twice and digested with 0.05% trypsin (Life Technologies, 25300-054, 10 min at 37°C). Trypsin reaction was terminated by the addition of 7 ml HBSS and 1 ml of horse serum. Cells were separated by pipetting and filtration through a cell strainer (40 µm, Falcon, 352340). Cells were centrifuged at 1,000 rpm for 5 min (4°C), the supernatant discarded and the pellet suspended in 5 ml Dulbecco's Modified Eagle Medium (DMEM; Sigma-Aldrich, D6546) containing GlutaMAX (Life Technologies, 31966-021) containing 5% horse serum (Life Technologies, 26050-088) and 20 mM glucose (Sigma-Aldrich, 8270). Primary cortical neurons were plated in 12 well plates, on cover slips coated with poly-D-lysine (Sigma-Aldrich, P6407). […]
TUNEL staining - TUNEL staining was assessed according to the manufacturer's protocol for the Click-iT Plus TUNEL assay (ThermoFisher, C10617). […]

## CCCNC(=O)[C@H]1O[C@@H]1C(=O)N[C@H](C(=O)N1CCC[C@H]1C(=O)O)[C@@H](C)CC [CA-074]
  SPM-induced neuronal death (TUNEL positivity): rescues SPM-induced neuronal death
